Consider 1 molecule from patent publication US6462045B1, “Method of treating pulmonary hypertension” (Orion Corporation, priority 1998, dated 2002).

Molecules are shown by their SMILES.

The test system of assay [1] is patients. Briefly: Experiment 1: levosimendan infusion for 24 hrs in 95 patients, change in mean pulmonary artery pressure. The class given is in vivo, human. The note with it: infusion 0.05, 0.1, 0.2, 0.4 and 0.6 μg/kg/min for 24 hrs, FIG. 1. The method, then:
Levosimendan (LS) was administered by infusion (0.05-0.6 μg /kg/min) to totally 95 patients (n=14-23 per group) in amounts of 0.05, 0.1, 0.2, 0.4 and 0.6 μg/kg/min for 24 hrs. The change in the mean pulmonary artery pressure was determined.
------ is placebo, --O-- is vehicle, --[…]-- is dobutamine,
— is LS 0.05 μg/kg/min, —C— is LS 0.1 μg/kg/min, —□— is LS 0.2 μg/kg/min,
—⋄— is LS 0.4 μg/kg/min, —Δ— is LS 0.6 μg/kg/min

Assay [2] concerns patient with pulmonary hypertension. Briefly: Experiment 2: levosimendan infusion for 5.5 hrs in a patient with pulmonary hypertension, mean pulmonary artery pressure. It counts as in vivo, human. On the procedure:
Levosimendan was administered by infusion (0.1-0.4 μg/kg/min) to a patient with pulmonary hypertension in amounts of 0.1, 0.2 and 0.4 μg/kg/min for 5.5 hrs. At 0.25 h the infusion rate was 0.1 μg/kg/min, at 2.00 h the infusion rate was increased to 0.2 μg/kg/min and at 4.5 h the infusion rate was increased to 0.4 μg/kg/min. The change in the mean pulmonary artery pressure (MPAP) was determined.
Table 1. The change of mean pulmonary artery pressure (NPAP) during levosimendan infusion. 0.25 h infusion rate 0.1 μg/kg/min, 2.00 h infusion rate 0.2 μg/kg/min, 4.5 h infusion rate 0.4 μg/kg/min.

For `CC1CC(=O)NN=C1c1ccc(NN=C(C#N)C#N)cc1` (single isomer, unassigned; (-)) [levosimendan, (−)-[[4-(1,4,5,6-tetrahydro-4-methyl-6-oxo-3-pyridazinyl)phenyl]hydrazono]propanedinitrile], in assay [1], the “change in the mean pulmonary artery pressure” value is reported as “able to significantly lower pulmonary artery pressure”. In addition, the “change in the mean pulmonary artery pressure (MPAP)” value in assay [2] (infusion 0.1, 0.2 and 0.4 μg/kg/min for 5.5 hrs, one patient with pulmonary hypertension) is “able to significantly lower pulmonary artery pressure”. The MPAP is 41 mmHg in assay [2] (time 0 h (before the 0.1 μg/kg/min infusion rate at 0.25 h)); 42 mmHg in assay [2] (time 0.75 h, infusion rate 0.1 μg/kg/min); 42 mmHg in assay [2] (time 1.25 h, infusion rate 0.1 μg/kg/min); 39 mmHg in assay [2] (time 1.75 h, infusion rate 0.1 μg/kg/min); 34 mmHg in assay [2] (time 2.50 h, infusion rate 0.2 μg/kg/min); 35 mmHg in assay [2] (time 3.00 h, infusion rate 0.2 μg/kg/min). Also, the MPAP in assay [2] (time 3.50 h, infusion rate 0.2 μg/kg/min) was found to be 35 mmHg; in assay [2] (time 4.00 h, infusion rate 0.2 μg/kg/min), 32 mmHg; in assay [2] (time 5.00 h, infusion rate 0.4 μg/kg/min), 27 mmHg; in assay [2] (time 5.50 h, infusion rate 0.4 μg/kg/min), 29 mmHg.
